According to US9198429B2, “Heterocyclic alkanol-derivatives” (BAYER INTELLECTUAL PROPERTY GMBH, priority 2011, dated 2015):
Several values for one entry are separate records, joined by “and”; a condition that tells them apart may be missing. Identical values can stand only once.

Assays:
[1] = test system: Sphaerotheca fuliginea; test: Example A: Sphaerotheca test (cucumber)/protective; type: in vivo; settings: 500 ppm, cucumber plants, protective, evaluation 7 days after inoculation
[2] = test system: Sphaerotheca fuliginea; test: Example E: Sphaerotheca test (cucumber)/protective, comparison with EP-A 395 175; type: in vivo; settings: application rate 100 ppm, cucumber plants, protective, evaluation 7 days after inoculation
[3] = physchem
[4] = logP by HPLC on reversed-phase columns (EEC directive 79/831 Annex V.A8)
[5] = test system: Pyrenophora teres; test: Example C: Pyrenophora teres test (barley)/protective; type: in vivo; settings: 500 ppm, protective, evaluation 7-9 days after inoculation
[6] = for log P [b]: pH 2.7; for log P [c]: pH 7.8; for log P [a]: pH 2.3
[7] = test system: Alternaria solani; test: Example B: Alternaria test (tomato)/protective; type: in vivo; settings: 500 ppm, tomato plants, protective, evaluation 7 days after inoculation
[8] = test system: Pyrenophora teres; test: Example F: Pyrenophora teres test (barley)/protective, comparison with EP-A 409 418; type: in vivo; settings: application rate 500 ppm, protective, evaluation 7-9 days after inoculation
[9] = test system: Pyricularia oryzae; type: in vivo; settings: application rate 1000 ppm, rice plants, protective, evaluation 6 days after inoculation
[10] = test system: Uromyces appendiculatus; test: Example H: Uromyces test (beans)/protective; type: in vivo; settings: application rate 10 ppm, protective, evaluation 10 days after inoculation
Experimental: To test for protective activity, young plants are sprayed with the preparation of active compound at the stated application rate. After the spray coating has dried on, the plants are inoculated with an aqueous spore suspension of bean rust (Uromyces appendiculatus) and then remain in an incubation cabin at 100% relative atmospheric humidity and 20° C. for one day. The plants are then placed in a greenhouse at 90% relative atmospheric humidity and a temperature of about 21° C. […]

OC(Cc1cncs1)(c1ccc(Cl)cc1)C1(Oc2ccc(F)cc2)CC1 (stereo not drawn) [Compound 2, 1-(4-chlorophenyl)-1-[1-(4-fluorophenoxy)cyclopropyl]-2-(1,3-thiazol-5-yl)ethanol]
Efficacy (%) [1]: 100%
Efficacy in % [2]: 93%
chromatographic logP ([3]; pH 2.7): 3.62
chromatographic logP ([3]; pH 7.8): 3.65

CC(C)[Si](c1ncc(C(O)(c2ccc(Cl)cc2)C2(Oc3ccccc3)CC2)o1)(C(C)C)C(C)C (stereo not drawn) [Compound 9, (4-chlorophenyl)(1-phenoxycyclopropyl)[2-(triisopropylsilyl)-1,3-oxazol-5-yl]methanol]
chromatographic logP ([4]; pH 2.7): 7.36
chromatographic logP ([4]; pH 7.8): 7.36

OC(c1cncs1)(c1ccc(F)cc1F)C1(Oc2ccc(F)cc2F)CC1 (stereo not drawn) [Compound 11, [1-(2,4-difluorophenoxy)cyclopropyl](2,4-difluorophenyl)1,3-thiazol-5-ylmethanol]
Efficacy (%) [1]: 95%
chromatographic logP ([3]; pH 2.7): 3.35
chromatographic logP ([3]; pH 7.8): 3.3

CC(C)(Cc1ccc(C(F)(F)F)cc1)C(C)(O)c1cncs1 (stereo not drawn) [Compound 21]
Efficacy (%) [5]: 70%
log P [b] [6]: 3.34^[b]

CC(C)(Cc1ccc(OC(F)(F)F)cc1)C(C)(O)c1cncs1 (stereo not drawn) [Compound 17]
Efficacy (%) [7]: 90%

COc1ccc(OC(C)(C)C(O)(c2cncs2)C(C)(C)C)cc1 (stereo not drawn) [Compound 13]
Efficacy (%) [5]: 75%
log P [b] [6]: 3.49^[b]

CC(C)(C)C(O)(c1cncs1)C(C)(C)Oc1ccc(I)cc1F (stereo not drawn) [Compound 14]
log P [b] [6]: 4.7^[b]

OC(c1ccc(Br)cc1)(c1cnco1)C1(Oc2ccc(F)cc2)CC1 (stereo not drawn) [Compound 7]
log P [b] [6]: 3.54
log P [c] [6]: 3.52

CC(c1ccc(Cl)cc1Cl)C(O)(c1cncs1)C(C)(C)C (stereo not drawn) [Compound 23]
Efficacy (%) [1]: 70%
log P [a] [6]: 4.4[a]

CC(C)(Cc1ccc(Br)cc1)C(C)(O)c1cncs1 (stereo not drawn) [Compound 18]
log P [b] [6]: 3.22^[b]

OC(c1cnc(Cl)s1)(c1ccc(F)cc1F)C1(Oc2ccc(F)cc2F)CC1 (stereo not drawn) [Compound 12, (2-chloro-1,3-thiazol-5-yl)[1-(2,4-difluorophenoxy)cyclopropyl](2,4-difluorophenyl)methanol]
chromatographic logP ([3]; pH 2.7): 4.29
chromatographic logP ([3]; pH 7.8): 4.23

CC(C)(Cc1ccc(F)cc1Cl)C(C)(O)c1cncs1 (stereo not drawn) [Compound 19]
log P [b] [6]: 3.14^[b]

CC(C)(C)C(O)(COc1ccc(Cl)cc1)Cc1cncs1 (stereo not drawn)
Efficacy in % [2]: 5%

CC(C)(C)C(O)(c1cncs1)C(C)(C)Oc1ccc(Cl)cc1 (stereo not drawn) [Compound 16, 2-(4-chlorophenoxy)-2,4,4-trimethyl-3-(1,3-thiazol-5-yl)pentan-3-ol]
Efficacy (%) [1]: 100%
chromatographic logP ([3]; pH 2.7): 4.13

CC(C)(Cc1ccc(I)cc1)C(C)(O)c1cncs1 (stereo not drawn) [Compound 20]
Efficacy (%) [7]: 90%
log P [b] [6]: 3.45^[b]

CC(C)(Cc1ccc(Cl)cc1)C(C)(O)c1cncs1 (stereo not drawn) [Compound 22, 4-(4-chlorophenyl)-3,3-dimethyl-2-(1,3-thiazol-5-yl)butan-2-ol]
Efficacy (%) [1]: 75%
Efficacy (%) [5]: 70% and 90%
Efficacy in % [8]: 70%
Efficacy in % [9]: 78%
Efficacy in % [10]: 80%
chromatographic logP ([3]; pH 2.7): 3.11

CC(C)(C)C(O)(CCc1ccc(Cl)cc1)Cc1cncs1 (stereo not drawn)
Efficacy in % [2]: 8%

OC(c1ccc(Br)cc1)(c1cnco1)C1(Oc2ccccc2)CC1 (stereo not drawn) [Compound 5]
log P [b] [6]: 3.51
log P [c] [6]: 3.48

OC(c1cnco1)(c1ccc(F)cc1F)C1(Oc2ccc(F)cc2F)CC1 (stereo not drawn) [Compound 4]
log P [b] [6]: 3.07
log P [c] [6]: 3.1

CC(c1ccc(F)cc1Cl)C(O)(c1cncs1)C(C)(CF)CF (stereo not drawn) [Compound 25]
Efficacy (%) [1]: 93%
log P [b] [6]: 3.46^[b]

CC(C)(C)C(O)(c1cncs1)C(C)(C)Oc1ccc(Br)cc1 (stereo not drawn) [Compound 15]
Efficacy (%) [1]: 99%
log P [b] [6]: 4.27^[b]

OC(Cc1cnc(Cl)s1)(c1ccc(Cl)cc1)C1(Oc2ccc(F)cc2)CC1 (stereo not drawn) [Compound 3, 1-(4-chlorophenyl)-2-(2-chloro-1,3-thiazol-5-yl)-1-[1-(4-fluorophenoxy)cyclopropyl]ethanol]
chromatographic logP ([3]; pH 2.7): 4.55
chromatographic logP ([3]; pH 7.8): 4.53

CC(C)(C)C(O)(CCc1ccc(Cl)cc1)c1cncs1 (stereo not drawn) [drawing 38]
Efficacy in % [9]: 22%

CC(C)(C)C(O)(CCc1ccc(Cl)cc1)c1cncs1 (stereo not drawn) [drawing 41, reference compound]
Efficacy in % [10]: 0%

OC(c1ccc(Cl)cc1)(c1cnco1)C1(Oc2ccccc2)CC1 (stereo not drawn) [Compound 8, (4-chlorophenyl)(1,3-oxazol-5-yl)(1-phenoxycyclopropyl)methanol]
chromatographic logP ([3]; pH 2.7): 3.37
chromatographic logP ([3]; pH 7.8): 3.43

OC(c1ccc(Br)cc1)(c1cnco1)C1(Oc2ccc(F)cc2F)CC1 (stereo not drawn) [Compound 6]
log P [b] [6]: 3.59
log P [c] [6]: 3.56

CC(C)(C)C(O)(CCc1ccc(Cl)cc1)c1cncs1 (stereo not drawn) [drawing 36, reference compound]
Efficacy in % [8]: 0%

CC(c1ccc(F)cc1Cl)C(O)(c1cnc(Cl)s1)C(C)(CF)CF (stereo not drawn) [Compound 26]
log P [a] [6]: 4.51^[a]

CC(C)(C)C(O)(COc1ccc(Cl)cc1)c1cncs1 (stereo not drawn)
Efficacy in % [9]: 33%
